Experimental data published in patent US7589123B2, “Chemical compounds” (Phytopharm PLC, priority 2006, dated 2009).

How the values were obtained:
[1] = tested on: histamine-induced contractions in guinea pig ileum; experiment: Inhibition of histamine-induced contractions in guinea pig ileum (Assay 3); conditions: Cavia porcellus, histamine 1.7 μM, read-out: Inhibition of histamine-induced contraction (%)
Protocol: (§1) Duncan Hartley derived male guinea pigs (325±25 g) were suppressed by CO2 overexposure, the abdominal cavity was exposed and ileal segments were removed. Small strips of ileum were suspended in organ baths containing Krebs solution (composition in g/l: NaCl 6.89, KCl 0.35, CaCl2 0.277, KH2PO4 0.163, MgSO4.7H2O 0.296, NaHCO3 2.1 glucose 1.8). The solution was kept at 32° C. and gassed with O2 (95%)-CO2 (5%) to maintain pH at 7.4. Mechanical activity was recorded by means of isotonic transducers. A resting tension of 1 g was applied to muscle strips before being equilibrated for 1 h, prior to test compound addition. Each preparation was washed twice at 15 min intervals during the equilibration.
(§2) Histamine (1.7 μM; approximately EC60-70) or 5-hydroxytryptamine (5-HT, 2.6 μM; approximately EC60-70) was applied for 5 min and the amplitude of the contraction recorded. The histamine or 5-HT was then washed out until the ileal tissue returned to baseline. Five min after returning to baseline test compound (3 and 30 μM) was applied and the amplitude of the contraction (if any) was recorded. In the continuous presence of test compound, histamine or 5-HT was re-applied and the inhibition of the response was recorded.

[2] = tested on: 5-HT-induced contractions in guinea pig ileum; experiment: Inhibition of 5-HT-induced contractions in guinea pig ileum (Assay 3); conditions: Cavia porcellus, 5-HT 2.6 μM, read-out: Inhibition of 5-HT-induced contraction (%)
Protocol: as §1, §2

[3] = tested on: α-smooth muscle actin (α-SMA) mRNA; experiment: Anti-remodelling activity in human lung fibroblasts (HFL1): TGFβ-induced α-SMA mRNA (Assay 4); format: cell-based; conditions: Homo sapiens, HFL1 cells, TGFβ 10 ng/ml, 24 h, read-out: Inhibition of α-SMA mRNA synthesis (%)
Protocol: A human foetal lung fibroblast cell line (HFL1 cells; ATCC accession number CCl-153) was used in this assay. The cells were cultured in medium containing a low level of foetal bovine serum (FBS; 0.1%) for 24 h. After 24 h of culturing the medium was changed to: (a) Control medium (medium containing 10% FBS, 1% phosphate saline and 0.5 mM L-glutamine), (b) Control medium and transforming growth factor beta (TGFβ; 10 ng/ml), (c) Control medium and TGFβ and test compounds (3 and 30 μM). The medium was collected after 24 h and the total mRNA extracted in Tri-reagent. The level of mRNA coding for α-smooth muscle actin (α-SMA) was assessed by real-time reverse transcription-polymerase chain reaction (rtRT-PCR) using primer couples that allow the amplification of α-SMA mRNA. Liver glyceraldehydes 3-phosphate dehydrogenase (GADPH) was used as a reference marker in this experiment. The inhibition of the TGTβ-induced overexpression of α-SMA mRNA by the test compounds was quantified.

[4] = tested on: IL-1α-induced PGE2 release; experiment: IL-1α-induced PGE2 release in human diploid lung fibroblasts (WI-38) (Assay 5); format: cell-based; conditions: Homo sapiens, WI-38 cells, IL-1α 1 nM, overnight
Protocol: (§3) Human diploid lung fibroblasts (WI-38 cells) were incubated overnight in the presence of IL-1α (1 nM) and test compound (3 and 30 μM) in modified Eagle medium at pH 7.3 containing foetal bovine serum (10%) at 37° C. The supernatant was assayed by radioimmunoassay for released PGE2 and the inhibition of PGE2 by test compound calculated (Table 10). The viability of the cells was then assessed by washing with Roswell Park Memorial Institute medium and adding Alamar Blue reagent before being incubated at 37° C. for 4 h. Living cells take up Alamar Blue and emit fluorescence when excited. Fluorescence intensity was measured using a SpectroFluor Plus plate reader with excitation at 530 nm and emission at 590 nm (Table 10).

[5] = tested on: WI-38 cells; experiment: Viability of WI-38 cells, Alamar Blue (Assay 5); format: cell-based, human
Protocol: as §3

[6] = target: T1, 5-lipoxygenase (Homo sapiens, UniProt P09917); experiment: 5-lipoxygenase activity (LTB4) in human peripheral blood mononuclear leukocytes (Assay 6); format: cell-based; conditions: human PBMLs, A23187 30 μM, read-out: Inhibition of 5-LO (%)
T1 construct: endogenous in cells; host or cells: human peripheral blood mononuclear leukocytes (PBMLs)
T1 sequence (P09917 1-674): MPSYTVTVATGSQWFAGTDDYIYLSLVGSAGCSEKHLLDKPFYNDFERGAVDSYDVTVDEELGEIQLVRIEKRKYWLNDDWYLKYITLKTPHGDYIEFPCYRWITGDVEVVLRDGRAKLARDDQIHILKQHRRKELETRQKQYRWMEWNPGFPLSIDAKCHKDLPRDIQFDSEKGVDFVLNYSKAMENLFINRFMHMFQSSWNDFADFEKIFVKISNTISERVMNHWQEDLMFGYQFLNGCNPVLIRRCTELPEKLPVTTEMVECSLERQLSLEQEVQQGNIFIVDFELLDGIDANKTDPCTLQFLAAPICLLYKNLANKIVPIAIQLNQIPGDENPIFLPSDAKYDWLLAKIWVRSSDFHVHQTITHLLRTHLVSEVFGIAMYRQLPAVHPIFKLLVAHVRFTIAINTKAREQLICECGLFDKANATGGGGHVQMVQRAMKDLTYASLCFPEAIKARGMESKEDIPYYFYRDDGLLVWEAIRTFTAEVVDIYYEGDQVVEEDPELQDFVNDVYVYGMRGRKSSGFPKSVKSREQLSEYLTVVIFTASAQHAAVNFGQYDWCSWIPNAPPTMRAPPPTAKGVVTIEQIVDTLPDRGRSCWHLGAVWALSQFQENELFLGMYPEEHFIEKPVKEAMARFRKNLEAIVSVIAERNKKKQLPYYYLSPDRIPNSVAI
Protocol: Human peripheral blood mononuclear leukocytes (PBMLs) were isolated using a Ficoll-Paque density gradient. Human peripheral blood mononuclear leukocytes (5×10^6 cells) were incubated with A23187 (30 μM), a divalent cation ionophore used to initiate the biosynthesis of […], and with vehicle (0.1% DMSO) or test compound (3 and 30 μM) in Hank's balanced salt solution (HBBS) buffer, pH 7.4 at 37° C. for 15 min. The PBML solution was neutralized with NaOH (1 N) and centrifuged at 1000 g for 10 min and the supernatant collected. The concentration of leukotriene B4 (LTB4) in the supernatant was measured using an enzyme immunoassay kit (Assay Design Inc.). A reduction in the concentration of LTB4 indicated an inhibition of the enzyme 5-lipoxygenase (Table 11).

[7] = target: TRPV1 receptor (Rattus norvegicus, UniProt O35433); experiment: TRPV1 modulation in DRG neurones: CGRP release in absence and presence of capsaicin (Assay 2); format: cell-based; set-up: The culture used for this experiment contained sensory neurones, Schwann cells and fibroblasts; endogenous in cells; host or cells: primary rat DRG sensory neurone culture (with Schwann cells and fibroblasts); conditions: 20 min; for inhibition at 3 µM: 3 μM with capsaicin 1 μM; for inhibition at 3 µM / inhibition at 30 µM: −ve: inhibition, +ve: potentiation of capsaicin response, read-out: Effect of test compounds on capsaicin (1 μM)-induced CGRP release (%); for inhibition at 30 µM: 30 μM with capsaicin 1 μM; for Emax at 3 µM: test compound alone 3 μM; for Emax at 3 µM / Emax at 30 µM: rat DRG sensory neurones, read-out: CGRP release (% of capsaicin (1 μM) response); for Emax at 30 µM: test compound alone 30 μM
Chain of TRPV1 receptor (O35433 whole entry): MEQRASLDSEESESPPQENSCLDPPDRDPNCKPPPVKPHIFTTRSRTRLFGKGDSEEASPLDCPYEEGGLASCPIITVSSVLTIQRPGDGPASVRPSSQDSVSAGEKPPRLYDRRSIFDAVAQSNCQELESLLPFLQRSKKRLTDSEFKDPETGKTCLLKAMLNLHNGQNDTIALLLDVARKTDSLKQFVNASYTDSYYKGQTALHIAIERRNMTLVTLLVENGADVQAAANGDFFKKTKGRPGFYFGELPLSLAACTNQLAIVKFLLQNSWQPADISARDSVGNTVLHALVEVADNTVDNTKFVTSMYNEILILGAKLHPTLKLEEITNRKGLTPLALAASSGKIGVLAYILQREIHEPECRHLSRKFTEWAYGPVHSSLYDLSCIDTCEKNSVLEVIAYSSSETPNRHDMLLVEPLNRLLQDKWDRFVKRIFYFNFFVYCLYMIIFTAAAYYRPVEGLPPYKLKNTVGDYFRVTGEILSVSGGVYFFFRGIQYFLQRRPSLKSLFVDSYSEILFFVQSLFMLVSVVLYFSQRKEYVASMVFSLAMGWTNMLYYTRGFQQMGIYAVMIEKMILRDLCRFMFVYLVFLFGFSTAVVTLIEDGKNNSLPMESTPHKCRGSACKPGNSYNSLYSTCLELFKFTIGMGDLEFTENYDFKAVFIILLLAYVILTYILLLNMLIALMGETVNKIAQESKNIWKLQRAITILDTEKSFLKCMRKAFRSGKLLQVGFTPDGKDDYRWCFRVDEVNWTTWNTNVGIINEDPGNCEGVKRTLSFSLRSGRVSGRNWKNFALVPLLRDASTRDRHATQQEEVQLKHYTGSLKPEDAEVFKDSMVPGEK

SMILES	inhibition at 3 µM [6] [%]	inhibition at 30 µM [6] [%]	inhibition at 3 µM [7] [%]	inhibition at 30 µM [7] [%]	Emax at 3 µM [7] [%]	Emax at 30 µM [7] [%]	inhibition at 3 µM [1] [%]	inhibition at 30 µM [1] [%]	inhibition at 3 µM [2] [%]	inhibition at 30 µM [2] [%]	inhibition at 3 µM [3] [%]	inhibition at 30 µM [3] [%]	inhibition at 3 µM [4] [%]	inhibition at 30 µM [4] [%]	Decrease in cell viability (%) ([5]; 3 μM)	Decrease in cell viability (%) ([5]; 30 μM)
COc1cc(CCC(=O)CC(=O)c2ccc(O)c(OC)c2)ccc1O [Compound 15, 1,5-Bis(4-hydroxy-3-methoxyphenyl)-pentane-1,3-dione]	16	63	18	27	34	34	0	13	0	54	13	29	49	95	−2	−1
COc1cc(CCC(=O)CC(=O)c2ccccc2-c2ccccc2)ccc1O [Compound 19, 1-(Biphenyl-2-yl)-5-(4-hydroxy-3-methoxyphenyl)-pentane-1,3-dione]	48	99	-29	-159	139	286	8	81	13	39	57	97	73	100	−1	57
COc1cc(CCC(=O)CC(=O)c2ccc(Cl)cc2)ccc1O [Compound 21, 1-(4-Chlorophenyl)-5-(4-hydroxy-3-methoxyphenyl)pentane-1,3-dione]	68	98	6	-56	50	150	9	68	9	49	6	54	88	99	3	11
COc1cc(CCC(=O)CC(=O)c2cccc(Cl)c2)ccc1O [Compound 22, 1-(3-Chlorophenyl)-5-(4-hydroxy-3-methoxyphenyl)pentane-1,3-dione]	62	98	2	-58	60	163	11	65	18	94	-5	25	93	100	3	9

Further lines, with some results ahead:

inhibition at 3 µM [6] [%]	inhibition at 30 µM [6] [%]	inhibition at 3 µM [7] [%]	inhibition at 30 µM [7] [%]	Emax at 3 µM [7] [%]	Emax at 30 µM [7] [%]	SMILES	inhibition at 3 µM [1] [%]	inhibition at 30 µM [1] [%]	inhibition at 3 µM [2] [%]	inhibition at 30 µM [2] [%]	inhibition at 3 µM [3] [%]	inhibition at 30 µM [3] [%]	inhibition at 3 µM [4] [%]	inhibition at 30 µM [4] [%]	Decrease in cell viability (%) ([5]; 3 μM)	Decrease in cell viability (%) ([5]; 30 μM)
20	73	-49	-49	53	52	COc1cc(CCC(=O)C(C)C(=O)c2ccc(O)c(OC)c2)ccc1O (stereo not shown) [Compound 16, 1,5-Bis(4-hydroxy-3-methoxyphenyl)-2-methyl-pentane-1,3-dione]	4	22	0	28	-8	10	32	83	10	−9
51	95	-98	-22	55	183	COc1ccc(C(=O)C(C)C(=O)CCc2ccc(O)c(OC)c2)cc1 (stereo not shown) [Compound 17, 5-(4-Hydroxy-3-methoxyphenyl)-1-(4-methoxyphenyl)-2-methyl-pentane-1,3-dione]	3	29	6	42	-1	31	58	98	−1	4
58	98	29	4	46	96	COc1cc(CCC(=O)CC(=O)c2ccc(F)cc2)ccc1O [Compound 20, 1-(4-Fluorophenyl)-5-(4-hydroxy-3-methoxyphenyl)-pentane-1,3-dione]	0	22	2	74	-8	11	87	99	3	10
